Marks after values point to notes of the source that are not given here.
Key:
[1] = system: Pseudomonas aeruginosa, Escherichia coli, Enterobacter cloacae, Acinetobacter calcoaceticus; test: Repeat in-can challenge test, same conditions (Table 2); assay type: cell-based
Experimental: (§1) Various formulations were made in accordance with the present disclosure and tested for performance. In one challenge test, the efficacy of dicyandiamide as an adjuvant for BIT was evaluated using modified ASTM D2574-97 “Standard Test Method for Resistance of Emulsion Paints in the Container to Attack by Microorganisms” with higher inoculation volumes and frequency. A standard consortium of four (4) bacterial populations: Pseudomonas aeruginosa, Escherichia coli, Enterobacter cloacae, Acinetobacter calcoaceticus was used to inoculate three (3) different samples at ten percent (10%), five percent (5%), or two and a half percent (2.5%) of the sample size. At twenty-four (24) hours and seventy-two (72) hours after each inoculation, a portion of each sample was streaked on tryptic soy agar. A dilution plate count was performed at the last seventy-two (72) hour time point.
(§2) Example data provided in Tables 1, 2 and 3 should be understood as indicating the degree of microbial growth observed for a given data point unless otherwise indicated. In particular, each plate is ranked from 0 through 5c (i.e., one of 0, 1, 2, 3, 4, 5, or 5c) according to the degree of observed microbial growth, where: a “0” ranking indicates no growth; a “1” ranking indicates one (1) through five (5) observed colony forming unit (cfu), i.e., the plate was very lightly contaminated; a “2” ranking indicates six (6) through fifteen (15) cfu, i.e., the plate was lightly contaminated; a “3” ranking indicates sixteen (16) through thirty (30) cfu, i.e., the plate was moderately contaminated; a “4” ranking indicates thirty-one (31) through forty-five (45) cfu, i.e., the plate was heavily contaminated; a “5” ranking indicates greater than (45) cfu, i.e., the plate was severely contaminated; and a “5c” ranking indicates confluent growth, i.e., the plate was very severely contaminated. Thus, for instance, Table 1, Challenge 1 at 24 h for BIT 50 ppm has a value of 5 indicating greater than forty-five (45) cfu were observed. As another example for illustration, Table 1, Challenge 1 at 24 h for dicyandiamide 5,000 ppm + BIT 50 ppm has a value of 1 indicating one (1) through five (5) cfu was observed.

[2] = system: Pseudomonas aeruginosa, Escherichia coli, Enterobacter cloacae, Acinetobacter calcoaceticus; test: In-can challenge test, modified ASTM D2574-97 (Table 1); assay type: cell-based
Experimental: as §1, §2

[3] = system: microbial growth; test: In-can challenge test of dicyandiamide as adjuvant for MIT (Table 3); assay type: cell-based; details: for Passing result of challenge test (asterisk on sample) / 1st 24, degree of microbial growth (ranking) / 1st 72, degree of microbial growth (ranking) / 2nd 72, degree of microbial growth (ranking) / 3rd 24, degree of microbial growth (ranking) / 3rd 72, degree of microbial growth (ranking): Dicyandiamide 0
Text: However, using a combination of MIT and dicyandiamide can allow for effective microbial control at MIT concentrations as low as 20 ppm.
as §2

[4] = neutral pH; cited from earlier work
[5] = system: bacteria, fungi, and yeast; details: background statement; cited from earlier work
[6] = MIT - 50 30 ppm (MIT 15 ppm as active)
[7] = MIT - 50 40 ppm (MIT 20 ppm as active)
[8] = MIT - 50 50 ppm (MIT 25 ppm as active)
[9] = MIT - 50 60 ppm (MIT 30 ppm as active)
[10] = MIT - 50 70 ppm (MIT 35 ppm as active)

N#CN=C(N)N [Dicyandiamide, 2-cyanoguanidine]
Challenge 1 10% 24 h, degree of microbial growth (ranking) ([1]; Dicyandiamide 5,000 ppm): 5c
Challenge 1 10% 72 h, degree of microbial growth (ranking) ([1]; Dicyandiamide 5,000 ppm): 5c
Challenge 2 5% 72 h, degree of microbial growth (ranking) ([1]; Dicyandiamide 5,000 ppm): 5c
Challenge 3 2.5% 24 h, degree of microbial growth (ranking) ([1]; Dicyandiamide 5,000 ppm): 5c
Challenge 3 2.5% 72 h, dilution plate count ([1]; Dicyandiamide 5,000 ppm): 2.4×10^7
Challenge 1 10% 24 h, degree of microbial growth (ranking) ([2]; Dicyandiamide 5,000 ppm): 5c
Challenge 1 10% 72 h, degree of microbial growth (ranking) ([2]; Dicyandiamide 5,000 ppm): 5c
Challenge 2 5% 72 h, degree of microbial growth (ranking) ([2]; Dicyandiamide 5,000 ppm): 5c
Challenge 3 2.5% 24 h, degree of microbial growth (ranking) ([2]; Dicyandiamide 5,000 ppm): 5c
Challenge 3 2.5% 72 h, dilution plate count ([2]; Dicyandiamide 5,000 ppm): 8.0×10^6
Challenge 1 10% 24 h, degree of microbial growth (ranking) ([2]; Dicyandiamide 10,000 ppm): 5c
Challenge 1 10% 72 h, degree of microbial growth (ranking) ([2]; Dicyandiamide 10,000 ppm): 1 (one (1) through five (5) observed colony forming unit (cfu), i.e., the plate was very lightly contaminated)
Challenge 2 5% 72 h, degree of microbial growth (ranking) ([2]; Dicyandiamide 10,000 ppm): 5 (greater than (45) cfu, i.e., the plate was severely contaminated)
Challenge 3 2.5% 24 h, degree of microbial growth (ranking) ([2]; Dicyandiamide 10,000 ppm): 5 (greater than (45) cfu, i.e., the plate was severely contaminated)
Challenge 3 2.5% 72 h, dilution plate count ([2]; Dicyandiamide 10,000 ppm): 4.2×10^6
Efficacy in challenge test compared to the blank ([2]; dicyandiamide alone, not in combination with BIT, Table 1): no significant difference compared to the blank

Cn1sccc1=O [MIT - 50, 2-methyl-4-isothiazolin-3-one]
Passing result of challenge test (asterisk on sample) ([3]; MIT 30 ppm as active): MIT - 50 60 ppm (30)*
Passing result of challenge test (asterisk on sample) ([3]; MIT 35 ppm as active): MIT - 50 70 ppm (35)*
1st 24, degree of microbial growth (ranking) [3, 6]: 5 (greater than (45) cfu, i.e., the plate was severely contaminated)
1st 72, degree of microbial growth (ranking) [3, 6]: 5 (greater than (45) cfu, i.e., the plate was severely contaminated)
2nd 72, degree of microbial growth (ranking) [3, 6]: 5 (greater than (45) cfu, i.e., the plate was severely contaminated)
3rd 24, degree of microbial growth (ranking) [3, 6]: 5 (greater than (45) cfu, i.e., the plate was severely contaminated)
3rd 72, degree of microbial growth (ranking) [3, 6]: 5 (greater than (45) cfu, i.e., the plate was severely contaminated)
1st 24, degree of microbial growth (ranking) [3, 7]: 5 (greater than (45) cfu, i.e., the plate was severely contaminated)
1st 72, degree of microbial growth (ranking) [3, 7]: 5 (greater than (45) cfu, i.e., the plate was severely contaminated)
2nd 72, degree of microbial growth (ranking) [3, 7]: 5 (greater than (45) cfu, i.e., the plate was severely contaminated)
3rd 24, degree of microbial growth (ranking) [3, 7]: 5 (greater than (45) cfu, i.e., the plate was severely contaminated)
3rd 72, degree of microbial growth (ranking) [3, 7]: 5 (greater than (45) cfu, i.e., the plate was severely contaminated)
1st 24, degree of microbial growth (ranking) [3, 8]: 5 (greater than (45) cfu, i.e., the plate was severely contaminated)
1st 72, degree of microbial growth (ranking) [3, 8]: 2 (six (6) through fifteen (15) cfu, i.e., the plate was lightly contaminated)
2nd 72, degree of microbial growth (ranking) [3, 8]: 5 (greater than (45) cfu, i.e., the plate was severely contaminated)
3rd 24, degree of microbial growth (ranking) [3, 8]: 5 (greater than (45) cfu, i.e., the plate was severely contaminated)
3rd 72, degree of microbial growth (ranking) [3, 8]: 5 (greater than (45) cfu, i.e., the plate was severely contaminated)
1st 24, degree of microbial growth (ranking) [3, 9]: 5 (greater than (45) cfu, i.e., the plate was severely contaminated)
1st 72, degree of microbial growth (ranking) [3, 9]: 0
2nd 72, degree of microbial growth (ranking) [3, 9]: 5 (greater than (45) cfu, i.e., the plate was severely contaminated)
3rd 24, degree of microbial growth (ranking) [3, 9]: 5 (greater than (45) cfu, i.e., the plate was severely contaminated)
3rd 72, degree of microbial growth (ranking) [3, 9]: 0
1st 24, degree of microbial growth (ranking) [3, 10]: 5 (greater than (45) cfu, i.e., the plate was severely contaminated)
1st 72, degree of microbial growth (ranking) [3, 10]: 0
2nd 72, degree of microbial growth (ranking) [3, 10]: 0
3rd 24, degree of microbial growth (ranking) [3, 10]: 5 (greater than (45) cfu, i.e., the plate was severely contaminated)
3rd 72, degree of microbial growth (ranking) [3, 10]: 0
MIT concentration displaying passing results ([3]; MIT alone, no guanidine enhancer): ≥ 30 ppm

Zinc pyrithione [ZPT]
Solubility in water [4]: 8 ppm

O=c1[nH]sc2ccccc12 [BIT, 1,2-benzisothiazolin-3-one]
Challenge 1 10% 24 h, degree of microbial growth (ranking) ([1]; BIT 35 ppm): 5c
Challenge 1 10% 72 h, degree of microbial growth (ranking) ([1]; BIT 35 ppm): 5c
Challenge 2 5% 72 h, degree of microbial growth (ranking) ([1]; BIT 35 ppm): 5c
Challenge 3 2.5% 24 h, degree of microbial growth (ranking) ([1]; BIT 35 ppm): 5c
Challenge 3 2.5% 72 h, dilution plate count ([1]; BIT 35 ppm): 3.0×10^6
Challenge 1 10% 24 h, degree of microbial growth (ranking) ([1]; BIT 50 ppm): 5c
Challenge 1 10% 72 h, degree of microbial growth (ranking) ([1]; BIT 50 ppm): 5c
Challenge 2 5% 72 h, degree of microbial growth (ranking) ([1]; BIT 50 ppm): 5c
Challenge 3 2.5% 24 h, degree of microbial growth (ranking) ([1]; BIT 50 ppm): 5c
Challenge 3 2.5% 72 h, dilution plate count ([1]; BIT 50 ppm): 6.6×10^6
Challenge 1 10% 24 h, degree of microbial growth (ranking) ([1]; BIT 65 ppm): 5c
Challenge 1 10% 72 h, degree of microbial growth (ranking) ([1]; BIT 65 ppm): 3 (sixteen (16) through thirty (30) cfu, i.e., the plate was moderately contaminated)
Challenge 2 5% 72 h, degree of microbial growth (ranking) ([1]; BIT 65 ppm): 5c
Challenge 3 2.5% 24 h, degree of microbial growth (ranking) ([1]; BIT 65 ppm): 5c
Challenge 3 2.5% 72 h, dilution plate count ([1]; BIT 65 ppm): 1.0×10^6
Challenge 1 10% 24 h, degree of microbial growth (ranking) ([1]; BIT 75 ppm): 5c
Challenge 1 10% 72 h, degree of microbial growth (ranking) ([1]; BIT 75 ppm): 0
Challenge 2 5% 72 h, degree of microbial growth (ranking) ([1]; BIT 75 ppm): 5 (greater than (45) cfu, i.e., the plate was severely contaminated)
Challenge 3 2.5% 24 h, degree of microbial growth (ranking) ([1]; BIT 75 ppm): 5c
Challenge 3 2.5% 72 h, dilution plate count ([1]; BIT 75 ppm): 2.8×10^5
Challenge 1 10% 24 h, degree of microbial growth (ranking) ([1]; BIT 100 ppm): 5c
Challenge 1 10% 72 h, degree of microbial growth (ranking) ([1]; BIT 100 ppm): 0
Challenge 2 5% 72 h, degree of microbial growth (ranking) ([1]; BIT 100 ppm): 5 (greater than (45) cfu, i.e., the plate was severely contaminated)
Challenge 3 2.5% 24 h, degree of microbial growth (ranking) ([1]; BIT 100 ppm): 5c
Challenge 3 2.5% 72 h, dilution plate count ([1]; BIT 100 ppm): 1.8×10^7
Amount required for a reliable and quick biocidal activity [5]: ≤ 500 ppm
Challenge 1 10% 24 h, degree of microbial growth (ranking) ([2]; BIT 50 ppm): 5 (greater than (45) cfu, i.e., the plate was severely contaminated)
Challenge 1 10% 72 h, degree of microbial growth (ranking) ([2]; BIT 50 ppm): 2 (six (6) through fifteen (15) cfu, i.e., the plate was lightly contaminated)
Challenge 2 5% 72 h, degree of microbial growth (ranking) ([2]; BIT 50 ppm): 5 (greater than (45) cfu, i.e., the plate was severely contaminated)
Challenge 3 2.5% 24 h, degree of microbial growth (ranking) ([2]; BIT 50 ppm): 5c
Challenge 3 2.5% 72 h, dilution plate count ([2]; BIT 50 ppm): 7.8×10^6
Challenge 1 10% 24 h, degree of microbial growth (ranking) ([2]; BIT 100 ppm): 5 (greater than (45) cfu, i.e., the plate was severely contaminated)
Challenge 1 10% 72 h, degree of microbial growth (ranking) ([2]; BIT 100 ppm): 0
Challenge 2 5% 72 h, degree of microbial growth (ranking) ([2]; BIT 100 ppm): 0
Challenge 3 2.5% 24 h, degree of microbial growth (ranking) ([2]; BIT 100 ppm): 5 (greater than (45) cfu, i.e., the plate was severely contaminated)
Challenge 3 2.5% 72 h, dilution plate count ([2]; BIT 100 ppm): 5.0×10^1
